PubChem BioAssay (NCI)
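Tested at 5 concentrations; 48 h exposure; 96-well plates; endpoints linearly interpolated, else capped at highest concentration. Here, GI50 denotes the concentration required for 50% inhibition of growth. TGI: concentration producing complete growth inhibition.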

Assays:
Assay in all cases: growth of human tumour cells (NCI), 48 h
[1] = tested on: CCRF-CEM leukemia
[2] = tested on: HL-60(TB) leukemia
[3] = tested on: OVCAR-5 ovarian
[4] = tested on: SK-OV-3 ovarian
[5] = tested on: HOP-92 NSCLC
[6] = tested on: SNB-75 CNS
[7] = tested on: 786-0 renal
[8] = tested on: RPMI-8226 leukemia
[9] = tested on: NCI/ADR-RES ovarian
[10] = tested on: HS 578T breast
[11] = tested on: U251 CNS
[12] = tested on: COLO 205 colon
[13] = tested on: MALME-3M melanoma
[14] = tested on: PC-3 prostate
[15] = tested on: MDA-MB-231 breast
[16] = tested on: NCI-H460 lung
[17] = tested on: CAKI-1 renal
[18] = tested on: UO-31 renal
[19] = tested on: K-562 leukemia
[20] = tested on: UACC-257 melanoma
[21] = tested on: MDA-MB-435
[22] = tested on: BT-549 breast
[23] = tested on: NCI-H522 lung
[24] = tested on: SK-MEL-28 melanoma
[25] = tested on: HOP-62 NSCLC
[26] = tested on: OVCAR-3 ovarian
[27] = tested on: SNB-19 CNS
[28] = tested on: MOLT-4 leukemia
[29] = tested on: OVCAR-8 ovarian
[30] = tested on: HT29 colon
[31] = tested on: SK-MEL-5 melanoma
[32] = tested on: A549 NSCLC
[33] = tested on: DU-145 prostate
[34] = tested on: LOX IMVI melanoma
[35] = tested on: MCF7 breast
[36] = tested on: SF-539 CNS
[37] = tested on: SK-MEL-2 melanoma
[38] = tested on: HCT-116 colon
[39] = tested on: NCI-H23 lung
[40] = tested on: SN12C renal
[41] = tested on: OVCAR-4 ovarian
[42] = tested on: UACC-62 melanoma
[43] = tested on: RXF 393 renal
[44] = tested on: TK-10 renal
[45] = tested on: SR leukemia
[46] = tested on: T-47D breast
[47] = tested on: IGROV1 ovarian
[48] = tested on: HCT-15 colon
[49] = tested on: SW-620 colon
[50] = tested on: SF-295 CNS
[51] = tested on: NCI-H226 lung
[52] = tested on: EKVX NSCLC
[53] = tested on: KM12 colon
[54] = tested on: M14 melanoma
[55] = tested on: SF-268 CNS
[56] = tested on: ACHN renal
[57] = tested on: HCC-2998 colon

## Cc1ccc(NC2=N[C@]34CC(=O)CC[C@]3(C)[C@H]3CC[C@]5(C)C(=O)CC[C@H]5[C@@H]3C[C@@H]4S2)c(C)c1
[1]
  GI50: 2450 nM
  TGI: > 100000 nM
[2]
  GI50: 2470 nM
  TGI: 6030 nM
[3]
  GI50: 2900 nM
  TGI: > 100000 nM
[4]
  GI50: 9850 nM
  TGI: > 100000 nM
[5]
  GI50: 1720 nM
  TGI: 3860 nM
[6]
  GI50: 2190 nM
  TGI: 97500 nM
[7]
  GI50: 1620 nM
  TGI: 3070 nM
[8]
  GI50: 2430 nM
  TGI: 6250 nM
[9]
  GI50: 2910 nM
  TGI: > 100000 nM
[10]
  GI50: 3750 nM
  TGI: > 100000 nM
[11]
  GI50: 1690 nM
  TGI: 3210 nM
[12]
  GI50: 2500 nM
  TGI: 6540 nM
[13]
  GI50: 1990 nM
  TGI: 5550 nM
[14]
  GI50: 1860 nM
  TGI: 4530 nM
[15]
  GI50: 2330 nM
  TGI: 7920 nM
[16]
  GI50: 2700 nM
  TGI: 8390 nM
[17]
  GI50: 2830 nM
  TGI: > 100000 nM
[18]
  GI50: 1340 nM
  TGI: 2860 nM
[19]
  GI50: 2860 nM
  TGI: > 100000 nM
[20]
  GI50: 3700 nM
  TGI: > 100000 nM
[21]
  GI50: 3020 nM
  TGI: > 100000 nM
[22]
  GI50: 1490 nM
  TGI: 2940 nM
[23]
  GI50: 1680 nM
  TGI: 3280 nM
[24]
  GI50: 2310 nM
  TGI: 6080 nM
[25]
  GI50: 2430 nM
  TGI: 6920 nM
[26]
  GI50: 2180 nM
  TGI: 5030 nM
[27]
  GI50: 2120 nM
  TGI: 5090 nM
[28]
  GI50: 2490 nM
  TGI: > 100000 nM
[29]
  GI50: 2630 nM
  TGI: 7260 nM
[30]
  GI50: 2550 nM
  TGI: 7040 nM
[31]
  GI50: 1860 nM
  TGI: 3730 nM
[32]
  GI50: 3500 nM
  TGI: > 100000 nM
[33]
  GI50: 2040 nM
  TGI: 5180 nM
[34]
  GI50: 1640 nM
  TGI: 3130 nM
[35]
  GI50: 2310 nM
  TGI: > 100000 nM
[36]
  GI50: 1620 nM
  TGI: 3080 nM
[37]
  GI50: 2190 nM
  TGI: 4740 nM
[38]
  GI50: 1490 nM
  TGI: 2850 nM
[39]
  GI50: 2010 nM
  TGI: 4850 nM
[40]
  GI50: 2170 nM
  TGI: 5070 nM
[41]
  GI50: 3830 nM
  TGI: > 100000 nM
[42]
  GI50: 1720 nM
  TGI: 3940 nM
[43]
  GI50: 1740 nM
  TGI: 3230 nM
[44]
  GI50: 2460 nM
  TGI: 6700 nM
[45]
  GI50: 2320 nM
  TGI: > 100000 nM
[46]
  GI50: 2890 nM
  TGI: > 100000 nM
[47]
  GI50: 2110 nM
  TGI: 5140 nM

## CC1=NN(C(=O)c2ccc(Cl)cc2)C(=O)C1N=Nc1ccc(S(=O)(=O)Nc2ncccn2)cc1 (configuration not stated)
[48]
  TGI: > 100000 nM
[2]
  TGI: > 100000 nM
[3]
  TGI: > 100000 nM
[4]
  TGI: > 100000 nM
[5]
  TGI: 2070 nM
[6]
  TGI: > 100000 nM
[7]
  TGI: > 100000 nM
[9]
  TGI: > 100000 nM
[10]
  TGI: > 100000 nM
[11]
  TGI: > 100000 nM
[12]
  TGI: > 100000 nM
[13]
  TGI: > 100000 nM
[14]
  TGI: 5110 nM
[15]
  TGI: > 100000 nM
[16]
  TGI: > 100000 nM
[49]
  TGI: > 100000 nM
[17]
  TGI: > 100000 nM
[50]
  TGI: > 100000 nM
[18]
  TGI: > 100000 nM
[19]
  TGI: > 100000 nM
[20]
  TGI: > 100000 nM
[21]
  TGI: > 100000 nM
[51]
  TGI: > 100000 nM
[22]
  TGI: > 100000 nM
[23]
  TGI: > 100000 nM
[24]
  TGI: > 100000 nM
[25]
  TGI: > 100000 nM
[26]
  TGI: > 100000 nM
[27]
  TGI: > 100000 nM
[28]
  TGI: > 100000 nM
[29]
  TGI: > 100000 nM
[30]
  TGI: > 100000 nM
[52]
  TGI: > 100000 nM
[53]
  TGI: > 100000 nM
[31]
  TGI: > 100000 nM
[32]
  TGI: > 100000 nM
[33]
  TGI: > 100000 nM
[54]
  TGI: > 100000 nM
[55]
  TGI: > 100000 nM
[34]
  TGI: > 100000 nM
[35]
  TGI: > 100000 nM
[36]
  TGI: > 100000 nM
[37]
  TGI: > 100000 nM
[38]
  TGI: > 100000 nM
[39]
  TGI: > 100000 nM
[56]
  TGI: > 100000 nM
[40]
  TGI: > 100000 nM
[41]
  TGI: > 100000 nM
[42]
  TGI: > 100000 nM
[43]
  TGI: > 100000 nM
[44]
  TGI: > 100000 nM
[45]
  TGI: > 100000 nM
[46]
  TGI: > 100000 nM
[47]
  TGI: > 100000 nM

## C=C1C(=O)O[C@H]2[C@H]1CC/C(COC(=O)CCSSCCC(=O)OC/C1=C/CC[C@@]3(C)O[C@H]3[C@H]3OC(=O)C(=C)[C@@H]3CC1)=C\CC[C@@]1(C)O[C@@H]21
[48]
  GI50: 429 nM
  TGI: 1760 nM
[1]
  GI50: 225 nM
  TGI: 1190 nM
[2]
  GI50: 448 nM
  TGI: 2190 nM
[3]
  GI50: 1590 nM
  TGI: 3160 nM
[4]
  GI50: 6670 nM
  TGI: 19000 nM
[5]
  GI50: 1020 nM
  TGI: 2540 nM
[6]
  GI50: 1800 nM
  TGI: 3480 nM
[7]
  GI50: 1280 nM
  TGI: 2600 nM
[8]
  GI50: 1060 nM
  TGI: 3900 nM
[9]
  GI50: 2860 nM
  TGI: 10200 nM
[10]
  GI50: 1950 nM
  TGI: 7450 nM
[11]
  GI50: 1410 nM
  TGI: 2860 nM
[12]
  GI50: 1160 nM
  TGI: 2990 nM
[13]
  GI50: 1080 nM
  TGI: 2540 nM
[14]
  GI50: 1330 nM
  TGI: 2900 nM
[15]
  GI50: 1230 nM
  TGI: 2660 nM
[16]
  GI50: 1590 nM
  TGI: 3340 nM
[49]
  GI50: 458 nM
  TGI: 1900 nM
[17]
  GI50: 1280 nM
  TGI: 2540 nM
[50]
  GI50: 3500 nM
  TGI: 13900 nM
[18]
  GI50: 1080 nM
  TGI: 2280 nM
[19]
  GI50: 465 nM
  TGI: 2850 nM
[20]
  GI50: 1600 nM
  TGI: 3430 nM
[21]
  GI50: 1400 nM
  TGI: 3070 nM
[51]
  GI50: 1600 nM
  TGI: 3340 nM
[22]
  GI50: 1100 nM
  TGI: 2330 nM
[23]
  GI50: 688 nM
  TGI: 2270 nM
[24]
  GI50: 1490 nM
  TGI: 2950 nM
[25]
  GI50: 1980 nM
  TGI: 4640 nM
[57]
  GI50: 1980 nM
  TGI: 3930 nM
[26]
  GI50: 650 nM
  TGI: 1950 nM
[27]
  GI50: 1490 nM
  TGI: 3160 nM
[28]
  GI50: 437 nM
  TGI: 2610 nM
[29]
  GI50: 1260 nM
  TGI: 3020 nM
[30]
  GI50: 819 nM
  TGI: 2390 nM
[52]
  GI50: 1610 nM
  TGI: 3470 nM
[53]
  GI50: 1830 nM
  TGI: 3690 nM
[31]
  GI50: 1440 nM
  TGI: 2780 nM
[32]
  GI50: 1990 nM
  TGI: 4270 nM
[33]
  GI50: 1300 nM
  TGI: 2570 nM
[54]
  GI50: 1340 nM
  TGI: 2880 nM
[55]
  GI50: 1460 nM
  TGI: 3080 nM
[34]
  GI50: 1600 nM
  TGI: 3120 nM
[35]
  GI50: 426 nM
  TGI: 2320 nM
[36]
  GI50: 1500 nM
  TGI: 2910 nM
[37]
  GI50: 1930 nM
  TGI: 4160 nM
[38]
  GI50: 330 nM
  TGI: 1240 nM
[39]
  GI50: 1730 nM
  TGI: 3720 nM
[56]
  GI50: 897 nM
  TGI: 2110 nM
[40]
  GI50: 1140 nM
  TGI: 2580 nM
[41]
  GI50: 1520 nM
  TGI: 3120 nM
[42]
  GI50: 1560 nM
  TGI: 3160 nM
[43]
  GI50: 247 nM
  TGI: 980 nM
[44]
  GI50: 1620 nM
  TGI: 3190 nM
[45]
  GI50: 308 nM
  TGI: 2770 nM
[46]
  GI50: 1200 nM
  TGI: 4010 nM
[47]
  GI50: 1190 nM
  TGI: 2660 nM
